What all share (assay type): cell-based
The subject of series [1] is colorectal adenocarcinoma cell line HT29. Nature of the series: Growth curve (cell count every 24 hours) of cell line HT29. To be noted: HT29, 96 hours of stimulation; 5-ASA 20 mM, VD3 10^-7 M, alone or combined; control 14 expansions. As for the experimental part:
The cell lines CaCo2 and HT29 of colorectal adenocarcinoma obtained from the ATCC (Rockville, Md., USA) were grown in a DMEM culture medium (Euroclone, Devon, UK), to which were added 10% foetal bovine serum (Lonza, Walkersville, Md., USA) inactivated at heat and 1 mM of L-glutamine (Euroclone). The 5-aminosalicylic acid (5-ASA, SOFAR S.p.A., Milan, Italy) and acetylsalicylic acid (ASA, Sigma Aldrich, St Louise, Mo., USA) were dissolved in a culture medium in a concentration of respectively 20 and 10 mM. […] The QRT-PCR was then carried out with an ABI PRISM 7900 (Applied Biosystems) sequence detecting system for quantifying the relative levels of mRNA measured in the various samples. […] The QRT-PCR signals were evacuated using the corresponding quantification method ΔΔ[…]. Relative gene expression data were analysed using real-time quantitative PCR and the 2(-Delta Delta C(T)) Method. […] The values obtained were expressed as a relative quantity (RQ) of the variation in the messenger levels. The colorectal adenocarcinoma cell line HT29, which was chosen for its responsiveness to the VD3 deriving from the corresponding VDR receptor, was subjected to “in vitro” treatment with 5-ASA 20 mM and VD3 10^-7 M, used individually and in association, in order to quantify the antiproliferative effect determined by the compounds analysed on cancerous colonocytes. […]

Series [2] concerns μ-protocadherin, E-cadherin, p21^waf1 and KLF4 messenger expression in HT29 cells. In words: QRT-PCR analysis of mRNA of genes regulating proliferation, differentiation and apoptosis in HT29 cells. To be noted: HT29, 96 hours; 5-ASA 20 mM, VD3 10^-7 M, alone or combined; RQ vs calibrator, normalised on GAPDH. Here is the method: The cell lines CaCo2 and HT29 of colorectal adenocarcinoma obtained from the ATCC (Rockville, Md., USA) were grown in a DMEM culture medium (Euroclone, Devon, UK), to which were added 10% foetal bovine serum (Lonza, Walkersville, Md., USA) inactivated at heat and 1 mM of L-glutamine (Euroclone). The 5-aminosalicylic acid (5-ASA, SOFAR S.p.A., Milan, Italy) and acetylsalicylic acid (ASA, Sigma Aldrich, St Louise, Mo., USA) were dissolved in a culture medium in a concentration of respectively 20 and 10 mM. The vitamin D3 (VD3) (1 alpha, 25 dihydroxyvitamin D3, calcitriol, Sigma Aldrich) was diluted in the culture medium at a concentration of 10^-7 M. For the experiments conducted with the cell line HT29, 300,000 cells were sown for each sample and 5-ASA, vitamin D3 or the combination of 5-ASA and VD3 were added to each well. For the experiments conducted with the cell line CaCo2, on the other hand, 300,000 cells were again sown for each sample, but adding 5-ASA or ASA to each well. The treated cells were then subjected to a cell count every 24 hours to monitor the anti-proliferation effect of the different stimuli. After 96 hours of treatment all the cells were collected, resorbed and the RNA was extracted by means of the “Qiagen total RNA purification kit” following the manufacturer's instructions (Qiagen, Valencia, Calif.). The integrity and concentration of the RNA were tested using the Bio-Analyzer technique (Applied Biosystem, Foster City, Calif.). 100 ng total of RNA were then retrotranscribed using the High Capacity cDNA Archive Kit (Applied Biosystems) on the basis of the instructions provided by the manufacturer. The QRT-PCR was then carried out with an ABI PRISM 7900 (Applied Biosystems) sequence detecting system for quantifying the relative levels of mRNA measured in the various samples. The triggers and probes for amplifying the mRNA of the μ-protocadherin, E-cadherin, p21^waf-1, KLF4 and glyceraldehyde 3-phosphate dehydrogenase (GAPDH) were devised by Applied Biosystems. Each sample of cDNA was processed in triplicate in 50 μl of reaction volume using the Taqman Universal PCR Master Mix (Applied Biosystems). Thermal cyclisation was started with initial denaturation at 50° C. for 2 minutes and at 90° C. for 10 minutes followed by 40 cycles of 15 seconds at 95° C. and 1 minute at 60° C. The QRT-PCR signals were evacuated using the corresponding quantification method ΔΔ[…]. Relative gene expression data were analysed using real-time quantitative PCR and the 2(-Delta Delta C(T)) Method. Methods 2001; 25(4):402-8). This procedure calculates the relative difference in gene expression of the target gene normalised on the endogen control (GAPDH) and compared with a calibrating sample. The values obtained were expressed as a relative quantity (RQ) of the variation in the messenger levels. In order to check at the molecular level the effects determined on the cell line HT29 by the association 5-ASA/VD3, “Real Time”, quantitative RT-PCR was used to analyse the expression of a series of genes the protein products of which are involved in the regulation of the proliferation, differentiation and apoptosis of cancer colonocytes such as μ-protocadherin, E-cadherin, p21^waf1 and KLF4. This analysis was conducted on cell cultures subjected to 96 hours of treatment with the studied drugs, which were used in the previously disclosed concentrations.

In series [3] the test system is colorectal adenocarcinoma cell line CaCo2. In words: Growth curve (cell count) of cell line CaCo2 treated with 5-ASA and ASA. To be noted: CaCo2, 96 hours; for cellularity "fold change" value / mortality / survival of treated cells: concentration of 20 mM of the analysed drugs. Here is the method: (§1) The cell lines CaCo2 and HT29 of colorectal adenocarcinoma obtained from the ATCC (Rockville, Md., USA) were grown in a DMEM culture medium (Euroclone, Devon, UK), to which were added 10% foetal bovine serum (Lonza, Walkersville, Md., USA) inactivated at heat and 1 mM of L-glutamine (Euroclone). The 5-aminosalicylic acid (5-ASA, SOFAR S.p.A., Milan, Italy) and acetylsalicylic acid (ASA, Sigma Aldrich, St Louise, Mo., USA) were dissolved in a culture medium in a concentration of respectively 20 and 10 mM. The vitamin D3 (VD3) (1 alpha, 25 dihydroxyvitamin D3, calcitriol, Sigma Aldrich) was diluted in the culture medium at a concentration of 10^−7 M. For the experiments conducted with the cell line HT29, 300,000 cells were sown for each sample and 5-ASA, vitamin D3 or the combination of 5-ASA and VD3 were added to each well. For the experiments conducted with the cell line CaCo2, on the other hand, 300,000 cells were again sown for each sample, but adding 5-ASA or ASA to each well. The treated cells were then subjected to a cell count every 24 hours to monitor the anti-proliferation effect of the different stimuli. After 96 hours of treatment all the cells were collected, resorbed and the RNA was extracted by means of the “Qiagen total RNA purification kit” following the manufacturer's instructions (Qiagen, Valencia, Calif.). The integrity and concentration of the RNA were tested using the Bio-Analyzer technique (Applied Biosystem, Foster City, Calif.). 100 ng total of RNA were then retrotranscribed using the High Capacity cDNA Archive Kit (Applied Biosystems) on the basis of the instructions provided by the manufacturer. The QRT-PCR was then carried out with an ABI PRISM 7900 (Applied Biosystems) sequence detecting system for quantifying the relative levels of mRNA measured in the various samples. The triggers and probes for amplifying the mRNA of the μ-protocadherin, E-cadherin, p21^waf-1, KLF4 and glyceraldehyde 3-phosphate dehydrogenase (GAPDH) were devised by Applied Biosystems. Each sample of cDNA was processed in triplicate in 50 μl of reaction volume using the Taqman Universal PCR Master Mix (Applied Biosystems). Thermal cyclisation was started with initial denaturation at 50° C. for 2 minutes and at 90° C. for 10 minutes followed by 40 cycles of 15 seconds at 95° C. and 1 minute at 60° C. The QRT-PCR signals were evacuated using the corresponding quantification method ΔΔCt (Livak K J, Schmittgen T D. Relative gene expression data were analysed using real-time quantitative PCR and the 2(-Delta Delta C(T)) Method. Methods 2001; 25(4):402-8). This procedure calculates the relative difference in gene expression of the target gene normalised on the endogen control (GAPDH) and compared with a calibrating sample. The values obtained were expressed as a relative quantity (RQ) of the variation in the messenger levels.
In order to characterise further the profile of efficacy and safety associated with the chemopreventive properties of 5-ASA, a series of experiments was conducted of the same type as the series explained previously, in which a comparative analysis was conducted of the biological effects determined on cancer colonocytes following treatment with 5-ASA and with aspirin (ASA), i.e. the main drug of the family of NSAIDs. […]

Series [4] relates to μ-protocadherin, E-cadherin, p21^waf1 and KLF4 messenger expression in CaCo2 cells. Nature of the series: QRT-PCR analysis of mRNA of β-catenin signal pathway genes in CaCo2 cells. To be noted: CaCo2, 96 hours; 5-ASA 20 mM, ASA 10 mM. Here is the method: as §1
On the samples taken from these cell cultures and from other cultures used as a control, the levels of messenger RNA of the genes listed in the previous paragraph (see FIG. 2) was determined by Quantitative Real Time RT-PCR. The obtained results have shown that the messenger expression of the μ-protocadherin, E-cadherin, p21^waf1 and KLF4 genes were induced respectively 3.8, 2.4, 8.0 and 5.5 times after treatment with 5-ASA 20 mM (FIG. 4), confirming the data previously observed on the cell line HT29. […] This datum is not surprising, considering the redundancy and heterogeneity that characterise molecular regulation of the gene p21^waf1, the expression of which is not only regulated by the proliferation signalling pathway of the β chain, explored in our experimental conditions through the evaluation of the codifying genes for μ-protocadherin, E-cadherin and KLF4, but also by numerous signalling pathways.

As for `Nc1ccc(O)c(C(=O)O)c1` [5-ASA, 5-aminosalicylic acid], the “number of cell expansions compared with the initial number of cells” value in series [1] is 8 expansions. In series [2], the “increase in messenger expression of E-cadherin” value came out at 2.2 times, the “increase in messenger expression of KLF-4” value came out at 2.2 times, the “increase in messenger expression of p21” value is on record as 2.9 times and the “increase in messenger expression of μ-protocadherin” value is 2.5 times. In series [3], the “cellularity "fold change" value” turned out to be 1 and the “mortality / survival of treated cells” value is recorded as “all the cells treated with 5-ASA survive”. In series [4], the “induction of messenger expression of E-cadherin” value stood at 2.4 times, the “induction of messenger expression of KLF4” value was 5.5 times, the “induction of messenger expression of p21^waf1” value stood at 8.0 times and the “induction of messenger expression of μ-protocadherin” value came to 3.8 times.
In the case of `CC(=O)Oc1ccccc1C(=O)O` [ASA, acetylsalicylic acid], in series [3], the “cellularity "fold change" value” came out at 0.2 and the “mortality / survival of treated cells” value is 80%. Further, the “antiproliferative effect of ASA 10 mM compared with 5-ASA 20 mM” value in series [3] (10 mM ASA vs 20 mM 5-ASA (equivalents)) is given as “absolutely superimposable antiproliferative effect”. Besides, in series [4], the “induction of messenger expression of E-cadherin” value was “does not, on the other hand, induce”; the “induction of messenger expression of KLF4” value is listed as “does not, on the other hand, induce”; the “induction of messenger expression of p21^waf1” value is reported as 5.8 times; the “induction of messenger expression of μ-protocadherin” value is listed as “does not, on the other hand, induce”.
For the compound `C=C1/C(=C\C=C2/CCC[C@]3(C)[C@@H]([C@H](C)CCCC(C)(C)O)CC[C@@H]23)C[C@@H](O)C[C@@H]1O` [VD3, 1 alpha, 25 dihydroxyvitamin D3], the “number of cell expansions compared with the initial number of cells” value in series [1] was 10 expansions. Besides, in series [2], the “increase in messenger expression of E-cadherin” value came to 1.7 times, the “increase in messenger expression of KLF-4” value came to 1.6 times, the “increase in messenger expression of p21” value is reported as 1.5 times and the “increase in messenger expression of μ-protocadherin” value worked out at 1 times.

These data come from patent US10905700B2, “Chemoprevention of colorectal cancer” (SOFAR SPA, priority 2012, dated 2021).
